Test results reported in patent US20080254023A1, “Treating Gliosis, Glial Scarring, Inflammation or Inhibition of Axonal Growth in the Nervous System by Modulating Eph Receptor” (THE UNIVERSITY OF QUEENSLAND, priority 2004, published 2008).

B1: IFNγ: Interferon-γ, inflammatory cytokine, inducer of astrocytic gliosis (protein, UniProt P01579 24-161, looked up)
Interferon gamma: QDPYVKEAENLKKYFNAGHSDVADNGTLFLGILKNWKEESDRKIMQSQIVSFYFKLFKNFKDDQSIQKSVETIKEDMNVKFFNSNKKKRDDFEKLTNYSVTDLNVQRKAIHELIQVMAELSPAAKTGKRKRSQMLFRG

Columns and labels:
Format in all cases: cell-based, mice
astrocytes = test: In vitro astrocyte proliferation assay (MTT); conditions: up to 72 hrs, LIF 1000 U/ml, IFN-γ 100 U/ml; for proliferation of WT astrocytes: wildtype astrocytes
Protocol: The [3-(4,5-dimethylthiazol-2-yl)-2,5-diphenyl]tetrazolium bromide (MTT) assay, which determines mitochondrial activity in living cells, is commonly used as a proliferation assay (Mosmann, J Immunol Methods 65:55-63, 1983). Living cells transform the tetrazolium ring into dark blue formazan crystals, which can be quantified by reading the optical density (O.D.); an increase in O.D. correlates with an increase in cell number over time. Wildtype and EphA4−/− astrocytes were plated on 96 well plates (Falcon) at 3×10^3 cells/well in DMEM supplemented with 10% FCS in the presence or absence of either LIF (1000 U/ml) or IFN-γ (100 U/ml). The MTT assay was performed at 2, 24, 48 and 72 hours after plating. MTT (0.25 mg/ml) was incubated with the cells at each timepoint for 2 hours at 37° C., the cells were then lysed with an equal volume of acidic isopropanol (0.04M HCL in absolute isopropanol) and the O.D. of the formazan product was measured at 550-650 nm.

Rho = Rho activation in cultured astrocytes (Rhotekin RBD assay)
Protocol: (§1) For biochemical analysis of astrocytes, factors as indicated were added to 80% confluent monolayers in 10 cm plates (Falcon, USA) for the times indicated. EphrinA5-Fc (available from the inventors) was pre-complexed as above.
(§2) Cells were lysed and a sample kept aside for analysis of total protein levels. The remainder of the lysate was used for immunoprecipitation in EphA4 or Rho activation assays. EphA4 activation was determined by immunoprecipitation of phosphorylated proteins using anti-phosphotyrosine (Cell Signaling), followed by Western transfer and detection of activated or total EphA4 using a rabbit anti-EphA4 antibody (kindly provided by Dr. D. Wilkinson, National Institute for Medical Research, London). Rho activation assays were performed using the Rhotekin RBD assay, according to the manufacturer's instructions (Upstate, USA). Total EphA4 and β-actin expression levels were determined in non-lesioned and 7 d post-lesioned spinal cords by Western analysis using rabbit anti-EphA4 antibody as above and mouse anti-β-actin antibody (Sigma). Densitometry was performed on the autoradiographs using NIH Image software to determine relative levels of the EphA4 bands and normalized to β-actin levels.

EphA4 [1] = test: EphA4 expression in cultured astrocytes (Western analysis); conditions: 72 hrs, compared with untreated controls
Protocol: as §1, §2

EphA4 [2] = target: T1, EphA4 (Mus musculus, UniProt Q03137); test: EphA4 phosphorylation in cultured astrocytes (anti-phosphotyrosine immunoprecipitation, Western)
T1 construct: chamber slides (Falcon, USA) containing wildtype or EphA4−/− astrocyte monolayers; endogenous in cells; host or cells: primary purified astrocyte cultures from wildtype mice
Protocol: as §1, §2

T1 sequence (Q03137 20-986): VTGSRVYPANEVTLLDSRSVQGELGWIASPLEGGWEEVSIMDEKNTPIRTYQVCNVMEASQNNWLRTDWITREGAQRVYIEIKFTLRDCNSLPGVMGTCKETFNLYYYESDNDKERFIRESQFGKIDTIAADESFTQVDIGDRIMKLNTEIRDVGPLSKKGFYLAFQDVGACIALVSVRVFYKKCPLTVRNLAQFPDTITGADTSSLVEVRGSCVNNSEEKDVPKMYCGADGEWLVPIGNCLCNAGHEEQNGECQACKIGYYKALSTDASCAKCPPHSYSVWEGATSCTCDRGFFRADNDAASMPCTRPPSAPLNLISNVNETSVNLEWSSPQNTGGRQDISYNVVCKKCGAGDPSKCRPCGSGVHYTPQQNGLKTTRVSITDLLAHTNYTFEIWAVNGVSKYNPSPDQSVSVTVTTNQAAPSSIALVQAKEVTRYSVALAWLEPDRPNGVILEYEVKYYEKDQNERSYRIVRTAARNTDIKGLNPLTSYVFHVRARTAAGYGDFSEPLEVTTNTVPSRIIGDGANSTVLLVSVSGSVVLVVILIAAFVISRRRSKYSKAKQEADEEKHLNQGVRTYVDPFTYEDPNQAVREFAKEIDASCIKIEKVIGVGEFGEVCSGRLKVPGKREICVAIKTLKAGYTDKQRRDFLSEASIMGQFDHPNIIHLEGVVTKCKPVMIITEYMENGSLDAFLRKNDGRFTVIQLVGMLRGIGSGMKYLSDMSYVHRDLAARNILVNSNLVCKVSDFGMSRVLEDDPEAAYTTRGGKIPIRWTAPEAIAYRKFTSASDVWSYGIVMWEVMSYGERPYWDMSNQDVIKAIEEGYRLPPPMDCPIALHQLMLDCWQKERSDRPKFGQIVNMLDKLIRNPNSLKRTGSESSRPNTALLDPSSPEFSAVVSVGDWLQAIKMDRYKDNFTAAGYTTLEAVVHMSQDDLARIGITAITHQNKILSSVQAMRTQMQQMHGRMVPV

| Molecule | proliferation response of EphA4−/− astrocytes (astrocytes) | proliferation of WT astrocytes (astrocytes) | Rho activation (RhoGTP) in EphA4−/− astrocytes (Rho; EphA4−/− astrocytes in culture) | Rho activation (RhoGTP) in wildtype astrocytes (Rho; wildtype astrocytes in culture) | upregulation of EphA4 expression on astrocytes (EphA4 [1]) | upregulation of EphA4 phosphorylation (EphA4 [2]) [fold] |
| --- | --- | --- | --- | --- | --- | --- |
| IFNγ: Interferon-γ, inflammatory cytokine, inducer of astrocytic gliosis | markedly decreased | increased proliferation | not | activated Rho | 56% |  |
| LIF: Leukemia inhibitory factor, inflammatory cytokine | markedly decreased | increased proliferation |  |  | 69% | 2 |
| TNFα |  |  |  |  | no effect |  |
| B1 |  |  |  |  |  | 2 |
